In patent US8455448B2, “Myostatin isoform” (Myostin Therapeutics Pty Ltd, priority 2004, dated 2013):
Where no end group is shown, it is not given here.

What was measured:
[1] = test system: human skeletal muscle myoblasts; assay: Proliferation assay of human primary myoblasts (methylene blue); type: cell-based
Experimental: (§1) Human skeletal muscle myoblasts (Cambrex, Australia) were seeded in 96-well tissue culture plates (Nunc, Roskilde, Denmark) at a cell density of 2000 cells per well in 200 μl of Skeletal Muscle Basal Medium (Cambrex, Australia) supplemented with foetal bovine serum (FBS, 10% v/v, Cambrex, Australia), and incubated overnight at 37° C. with 5% CO2. The medium was replaced with Dulbecco's modified Eagle's medium (DMEM, Invitrogen, California) supplemented with 5% foetal bovine serum (FBS, Invitrogen, California), penicillin (1×10^5 IU/l, Sigma, St Louis, Mo., USA) and streptomycin (100 mg/l, Sigma) buffered with NaHCO3 containing phenol red (7.22 nmol/l) as a pH indicator with 0, 0.1, 1, 5 and 10 μg/ml rhMSV38 or roMSV47 protein in a semi-random arrangement of eight replicates (n=8) for each test medium. Plates were incubated at 37° C. with 5% CO2 for 96 hours, and then the medium was removed. The wells were washed with 200 μl of phosphate buffered saline (PBS, Oxoid, UK) buffer and fixed with 100 μl of 10% formaldehyde, 0.9% NaCl solution for at least one hour. The fixative was then removed and 100 μl of 1% methylene blue stain in 0.01 M borate buffer (pH 8.5) was added to each well and incubated for 30 min at room temperature. Excess stain was removed by four sequential washes in borate buffer. Methylene blue was eluted from the cells by the addition of 100 μl 1:1 (v/v) ethanol/0.1 HCl. The plates were gently shaken and the absorbance was measured at 655 nm using a microplate photometer (VersaMax, Molecular Devices, CA).
Human skeletal muscle myoblasts (Cambrex, Australia) were seeded in 96-well tissue culture plates (Nunc, Roskilde, Denmark) at a cell density of 2000 cells per well in 200 μl of Skeletal Muscle Basal Medium (Cambrex, Australia) supplemented with foetal bovine serum (FBS, 10% v/v, Cambrex, Australia), and incubated overnight at 37° C. with 5% CO2. The medium was replaced with Dulbecco's modified Eagle's medium (DMEM, Invitrogen, California) supplemented with 5% foetal bovine serum (FBS, Invitrogen, California), penicillin (1×10^5 IU/l, Sigma, St Louis, Mo., USA) and streptomycin (100 mg/l, Sigma) buffered with NaHCO3 containing phenol red (7.22 nmol/l) as a pH indicator with no added protein, 1.5 or 3.0 μg/ml recombinant bovine mature myostatin alone and with combination of 0.3, 1, 3, 10 molar ratio of rhMSV38 to myostatin, and the same amounts of rhMSV38 without myostatin in a semi-random arrangement of eight replicates (n=8) for each test medium. Plates were incubated at 37° C. with 5% CO2 for 48 hours, and then the medium was removed. […] The plates were gently shaken and the absorbance was measured at 655 nm using a microplate photometer (VersaMax, Molecular Devices, CA).

myostatin = target: T1, myostatin (Bos taurus, UniProt O18836); assay: rhMSV38/mature myostatin competition in human primary myoblast proliferation assay; type: cell-based, bovine; conditions: FIG. 13
T1 sequence (O18836 267-375): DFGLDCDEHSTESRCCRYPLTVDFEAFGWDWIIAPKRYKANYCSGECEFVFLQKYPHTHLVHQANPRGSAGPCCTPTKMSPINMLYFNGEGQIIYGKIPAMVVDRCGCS
Experimental: as §1, with “with no added protein, 1.5 or 3.0 μg/ml recombinant bovine mature myostatin alone and with combination of 0.3,” for “with 0, 0.1,”, “1, 3, 10 molar ratio of rhMSV38 to myostatin,” for “1, 5”, “and the same amounts of” for “and 10 μg/ml”, “rhMSV38 without myostatin” for “rhMSV38 or roMSV47 protein”, “for 48” for “for 96”

murine C2C12 myoblasts = assay: Proliferation assay of C2C12 murine myoblasts (methylene blue, absorbance 655 nm); type: cell-based
Experimental: (§2) Myoblasts were seeded in 96-well tissue culture plates (Nunc, Roskilde, Denmark) at a cell density of 1000 cells per well in 200 μl of Dulbecco's modified Eagle's medium (DMEM, Invitrogen, California) supplemented with foetal bovine serum (FBS, 10% v/v, Invitrogen), penicillin (1×10^5 IU/l, Sigma, St Louis, Mo., USA) and streptomycin (100 mg/l, Sigma) buffered with NaHCO3 containing phenol red (7.22 nmol/l) as a pH indicator, and incubated overnight at 37° C. with 5% CO2. Medium was replaced with DMEM 10% FBS test medium containing 0, 0.001, 0.003, 0.01, 0.03, 0.1, 0.3, 1, 3 or 10 μg/ml oMSV65 in a semi-random arrangement of eight replicates (n=8) for each test medium. Plates were incubated at 37° C. with 5% CO2 for 72 hours, and then the medium was removed. The wells were washed with 200 μl of phosphate buffered saline (PBS, Oxoid, UK) and fixed with 100 μl of 10% formaldehyde, 0.9% NaCl solution for at least one hour. The fixative was then removed and 100 μl of 1% methylene blue stain in 0.01 M borate buffer (pH 8.5) was added to each well and incubated for 30 min at room temperature. Excess stain was removed by four sequential washes in borate buffer. Methylene blue was eluted from the cells by the addition of 100 μl 1:1 (v/v) ethanol/0.1 HCl. The plates were gently shaken and the absorbance was measured at 655 nm using a microplate photometer (FIGS. 3a and 3b).
as §2, with “0,” for “0, 0.001, 0.003,”, “0.01,” for “0.01, 0.03,”, “1” for “0.3, 1, 3”, “oMSV47” for “oMSV65”, “60” for “72”, “(FIG. 9).” for “(FIGS. 3a and 3b).”
Myoblasts were seeded in 96-well tissue culture plates (Nunc, Roskilde, Denmark) at a cell density of 1000 cells per well in […] of Dulbecco's modified Eagle's medium (DMEM, Invitrogen, California) supplemented with foetal bovine serum (FBS, 10% v/v, Invitrogen), penicillin (1×10^5 IU/l, Sigma, St Louis, Mo., USA) and streptomycin (100 mg/l, Sigma) buffered with NaHCO3 containing phenol red (7.22 nmol/l) as a pH indicator, and incubated overnight at 37° C. with 5% CO2. Medium was replaced with DMEM 2.5% FBS test medium containing 0, 0.01, 0.1, 1, 5 or 10 μg/ml of the respective peptides in a semi-random arrangement of eight replicates (n=8) for each test medium. Plates were incubated at 37° C. with 5% CO2 for 80 hours, and then the medium was removed. The wells were washed with 200 μl of phosphate buffered saline (PBS, Oxoid, UK) and fixed with 100 μl of 10% formaldehyde, 0.9% NaCl solution for at least one hour. The fixative was then removed and 100 μl of 1% methylene blue stain in 0.01 M borate buffer (pH 8.5) was added to each well and incubated for 30 min at room temperature. Excess stain was removed by four sequential washes in borate buffer. Methylene blue was eluted from the cells by the addition of 100 μl 1:1 (v/v) ethanol/0.1 HCl. […]

molar ratio rhMSV38:myostatin at which restoration was achieved (myostatin; double the concentration of myostatin (3 μg/ml Mstn), 48 h) [× molar ratio]	Substance	proliferation of human myoblasts ([1]; 0-10 μg/ml, 96 h, FIG. 12B)	proliferation of human primary myoblasts ([1]; rhMSV38 without myostatin, 48 h, FIG. 13)	overcoming the inhibitory effect of myostatin on proliferation of human myoblasts (myostatin; 1.5 μg/ml Mstn, 48 h)	antagonism of myostatin, proliferation relative to controls (myostatin; 1:10 molar ratio of myostatin to rhMSV38, 48 h)	proliferation of murine C2C12 myoblasts (murine C2C12 myoblasts; 0-10 μg/ml, DMEM 2.5% FBS, 80 h, FIG. 12A and FIG. 17)	proliferation of human myoblasts under myostatin ([1]; 1.5 or 3 μg/ml Mstn, 48 h, FIG. 13)	myoblast proliferation under myostatin (murine C2C12 myoblasts; 1.5 μg/ml myostatin, C2C12, FIG. 9)
1	rhMSV38: recombinant human MSV38 expressed in E. coli (VHFPTPPNEEWIFFNVRRIIFLEVGFQFCSILGETALS; not fully specified)	stimulate myoblast proliferation	stimulate proliferation of human primary myoblasts in a dose dependent manner	able to overcome the inhibitory effect of myostatin	increases proliferation beyond that of controls	stimulate myoblast proliferation		
	myostatin: recombinant bovine mature myostatin, negative regulator of muscle growth [reference compound]						inhibitory effect	inhibited myoblast proliferation
